Where “and” joins values, the source holds several entries; their conditions need not be identical. Identical values can stand only once.
System: H3K4me3 at known PRDM9 binding loci and control TSS loci
Assay: ChIP-qPCR of H3K4me3 in PRDM9-transfected HEK293T cells
Format: cell-based, human
Details: for 2^-dCq / dCq (IP-Input) / 2^-dCq (H3K4me3 IP relative to H3 IP) / Cq / 2^-dCq (H3K4me3 ChIP relative to H3 ChIP) / 2^-dCq (H3K4me3 ChIP-qPCR, IP relative to H3) / <Cq>: Antibody H3K4me3; for 2^-dCq / dCq (IP-Input) / Cq / <Cq>: Figure 7 Replicate 2; for 2^-dCq (H3K4me3 IP relative to H3 IP): ChIP-qPCR Replicate 1; for Cq: ChIP-qPCR single well; for 2^-dCq (H3K4me3 ChIP relative to H3 ChIP): Replicate 1; for 2^-dCq (H3K4me3 ChIP-qPCR, IP relative to H3) / H3K4me3 ChIP-qPCR 2^-dCq (IP-Input): Replicate 2; for H3K4me3 ChIP-qPCR 2^-dCq (IP-Input): H3K4me3 antibody relative to H3; for <Cq>: mean of two wells
Procedure: ChIP-qPCR assays were then conducted on known PRDM9 binding loci[26]. Ectopic expression of PRDM9^WT increased trimethylation of H3K4 (H3K4me3) at previously described PRDM9-specific intragenic and intergenic regions[26] (Fig. 7; Supplementary Fig. 12). […] The observed increases in H3K4me3 levels at intragenic and intergenic regions are therefore due directly to PRDM9 PR domain-dependent methylation activity, rather than through recruitment of other H3K4 methyltransferases or other indirect mechanisms.
ChIP qPCR analyses of H3K4me3 methylation levels of known PRDM9-bound loci and control loci. […] Concentrations used (µM) are indicated below each plot. (a–d) represent reported loci of PRDM9 methylation; (e, f) are transcriptional start sites (TSSs) which are not known loci of PRDM9 methylation. Data are normalized to total H3 and are presented as the mean ± upper and lower limits from two replicates. Representative plots of two independent experiments are shown in this figure. The coordinates and the genomic features associated with the assayed loci are indicated above each plot. Left Tailed Student's t-tests were performed by comparing DMSO (0 µM) treated cells to compound treated cells that have been transfected with the same plasmids. *p-value < 0.05 and **p-value < 0.01. Note that here we show a representative of two independent experiments (mean ± s.d of technical replicates) for our ChIP-qPCR experiments. Data obtained using this technique are inherently noisy due to stochastic differences in gene activity/histone positioning. Data are thus typically presented as representative rather than averaged. Source data are provided as a Source Data file.
HEK293T cells were transfected with 37.5 μg empty pcDNA3.1(+) vector (Invitrogen), or the same vector expressing either wild-type PRDM9 (PRDM9^WT) or a catalytically dead PRDM9 mutant (PRDM9^Mut) and 75 μL of Lipofectamine 2000 (Invitrogen) in 6 mL of Opti-MEM (GIBCO) for 48 h. […] ChIP assays were then performed as previously described. Briefly, cells were fixed in 1% formaldehyde and the fixation reaction was quenched in a final concentration of 0.1 M glycine. Cell pellets were first lysed in LB1 (50 mM HEPES-KOH pH 7.5, 140 mM NaCl, 1 mM EDTA, 10% Glycerol, 0.5% Igepal, 0.25% TritonX), washed once in LB2 Buffer (10 mM Tris-HCl pH 8, 200 mM NaCl, 1 mM EDTA, 0.5 mM EGTA) and finally sonicated in LB3 buffer (10 mM Tris-HCl pH 8, 100 mM NaCl, 1 mM EDTA, 0.5 mM EGTA, 0.1% Sodium deoxycholate, 0.5% N-laurosylsarcosine) using a bioruptor (Diagenode). Thereafter, 50 μg of chromatin was subjected to ChIP using the following antibodies purchased from Abcam: α-H3K4me3 (1:200, ab8580, lot:GR3207339-1) and α-H3 (1:250, ab1791, lot:GR300978-4). After extensive washing in RIPA wash buffer (50 mM HEPES-KOH pH 7.6, 100 mM LiCl, 1 mM EDTA, 1% Igepal, 0.7% Sodium Deoxycholate), DNA was eluted from beads. The eluted DNA was treated with RNase A and Proteinase K and purified using the QIAGEN PCR purification kit. qPCR was then carried out targeting the indicated loci (Supplementary Table 3). Upper and lower limits were defined by |2^−(dCq±s) − 2^−(∆Cq)|, where s = √((Standard deviation of Input Cq)^2 + (Standard deviation of Target Cq)^2). […]
formation. ChIP qPCR analyses of H3K4me3 methylation levels at known PRDM9-bound and control loci. Cells transfected with empty vector (negative control) or vectors overexpressing either wild-type PRDM9 (PRDM9 WT) or catalytically dead PRDM9 (PRDM9 MUT) were […]
Panels a-d represent reported loci of […]
(1 picture or pasted object on this page, not shown here)
PRDM9 methylation; e-f are TSSs which are not known sites of PRDM9 methylation. Data are normalized to total H3 and are presented as the mean ± upper and lower limits from two […]

[1] = Figure 7 E chr12:6643945-6644023 TSS (GAPDH), Plasmid Empty Vector, Drug Conc. 5
[2] = Figure 7 E chr12:6643945-6644023 TSS (GAPDH), Plasmid Empty Vector, Drug Conc. 10
[3] = Figure 7 E chr12:6643945-6644023 TSS (GAPDH), Plasmid PRDM9WT, Drug Conc. 5
[4] = Figure 7 E chr12:6643945-6644023 TSS (GAPDH), Plasmid PRDM9WT, Drug Conc. 10
[5] = Figure 7 F chr19:8510167-8510261 TSS (HNRNPM), Plasmid Empty Vector, Drug Conc. 5
[6] = Figure 7 F chr19:8510167-8510261 TSS (HNRNPM), Plasmid Empty Vector, Drug Conc. 10
[7] = Figure 7 F chr19:8510167-8510261 TSS (HNRNPM), Plasmid PRDM9WT, Drug Conc. 5
[8] = Figure 7 F chr19:8510167-8510261 TSS (HNRNPM), Plasmid PRDM9WT, Drug Conc. 10

Structure (SMILES): COc1cc(OC)cc(-c2noc(N3CCN(C)C4(CCN(c5ccccc5)CC4)C3)n2)c1 [MRK-740-NC]
- 2^-dCq (Plasmid PRDM9WT, Drug Conc. 5): 34.845
- dCq (IP-Input) (Plasmid PRDM9WT, Drug Conc. 5): -5.123
- 2^-dCq (Plasmid PRDM9WT, Drug Conc. 10): 50.1539
- dCq (IP-Input) (Plasmid PRDM9WT, Drug Conc. 10): -5.648
- 2^-dCq (H3K4me3 IP relative to H3 IP) [1]: 96.9166
- 2^-dCq (H3K4me3 IP relative to H3 IP) [2]: 40.6216
- 2^-dCq (H3K4me3 IP relative to H3 IP) [3]: 33.0164
- 2^-dCq (H3K4me3 IP relative to H3 IP) [4]: 25.1288
- 2^-dCq (H3K4me3 IP relative to H3 IP) [5]: 88.9762
- 2^-dCq (H3K4me3 IP relative to H3 IP) [6]: 43.9056
- 2^-dCq (H3K4me3 IP relative to H3 IP) [7]: 32.8222
- 2^-dCq (H3K4me3 IP relative to H3 IP) [8]: 26.0973
- Cq (Plasmid PRDM9WT, Drug Conc. 5): 21.4925 and 21.6408
- Cq (Plasmid PRDM9WT, Drug Conc. 10): 21.2248 and 20.9811
- 2^-dCq (H3K4me3 ChIP relative to H3 ChIP) (Figure 7 A, chr2:128811847-128811944 (Intergenic), Plasmid Empty Vector, Drug Conc. 5): 0.5813
- 2^-dCq (H3K4me3 ChIP relative to H3 ChIP) (Figure 7 A, chr2:128811847-128811944 (Intergenic), Plasmid Empty Vector, Drug Conc. 10): 0.3956
- 2^-dCq (H3K4me3 ChIP relative to H3 ChIP) (Figure 7 A, chr2:128811847-128811944 (Intergenic), Plasmid PRDM9WT, Drug Conc. 5): 2.494
- 2^-dCq (H3K4me3 ChIP relative to H3 ChIP) (Figure 7 A, chr2:128811847-128811944 (Intergenic), Plasmid PRDM9WT, Drug Conc. 10): 2.2717
- 2^-dCq (H3K4me3 ChIP relative to H3 ChIP) (Figure 7 B, chr8:49932778-49932856 (Intergenic), Plasmid Empty Vector, Drug Conc. 5): 0.3925
- 2^-dCq (H3K4me3 ChIP relative to H3 ChIP) (Figure 7 B, chr8:49932778-49932856 (Intergenic), Plasmid Empty Vector, Drug Conc. 10): 0.1726
- 2^-dCq (H3K4me3 ChIP relative to H3 ChIP) (Figure 7 B, chr8:49932778-49932856 (Intergenic), Plasmid PRDM9WT, Drug Conc. 5): 4.749
- 2^-dCq (H3K4me3 ChIP relative to H3 ChIP) (Figure 7 B, chr8:49932778-49932856 (Intergenic), Plasmid PRDM9WT, Drug Conc. 10): 4.289
- 2^-dCq (H3K4me3 ChIP relative to H3 ChIP) (Figure 7 C, chr2:40281930-40282015 Intragenic (SLC8A1-AS1), Plasmid Empty Vector, Drug Conc. 5): 0.3263
- 2^-dCq (H3K4me3 ChIP relative to H3 ChIP) (Figure 7 C, chr2:40281930-40282015 Intragenic (SLC8A1-AS1), Plasmid Empty Vector, Drug Conc. 10): 0.2399
- 2^-dCq (H3K4me3 ChIP relative to H3 ChIP) (Figure 7 C, chr2:40281930-40282015 Intragenic (SLC8A1-AS1), Plasmid PRDM9WT, Drug Conc. 5): 5.248
- 2^-dCq (H3K4me3 ChIP relative to H3 ChIP) (Figure 7 C, chr2:40281930-40282015 Intragenic (SLC8A1-AS1), Plasmid PRDM9WT, Drug Conc. 10): 4.126
- H3K4me3 levels at PRDM9-dependent intragenic and intergenic loci (ChIP-qPCR, in words) (HEK293T transfected with wild-type PRDM9, 48 h, various concentrations): negligible impact
- 2^-dCq (H3K4me3 ChIP-qPCR, IP relative to H3) (Figure 7 D chr3:165514798-165514911 Intragenic (BCHE), Plasmid Empty Vector, Drug Conc. 5): 0.55
- 2^-dCq (H3K4me3 ChIP-qPCR, IP relative to H3) (Figure 7 D chr3:165514798-165514911 Intragenic (BCHE), Plasmid Empty Vector, Drug Conc. 10): 0.9804
- 2^-dCq (H3K4me3 ChIP-qPCR, IP relative to H3) (Figure 7 D chr3:165514798-165514911 Intragenic (BCHE), Plasmid PRDM9WT, Drug Conc. 5): 6.945
- 2^-dCq (H3K4me3 ChIP-qPCR, IP relative to H3) (Figure 7 D chr3:165514798-165514911 Intragenic (BCHE), Plasmid PRDM9WT, Drug Conc. 10): 8.326
- 2^-dCq (H3K4me3 ChIP-qPCR, IP relative to H3) [1]: 90.8317
- 2^-dCq (H3K4me3 ChIP-qPCR, IP relative to H3) [2]: 79.4548
- 2^-dCq (H3K4me3 ChIP-qPCR, IP relative to H3) [3]: 29.3928
- 2^-dCq (H3K4me3 ChIP-qPCR, IP relative to H3) [4]: 64.1533
- 2^-dCq (H3K4me3 ChIP-qPCR, IP relative to H3) [5]: 64.4199
- 2^-dCq (H3K4me3 ChIP-qPCR, IP relative to H3) [6]: 72.9088
- 2^-dCq (H3K4me3 ChIP-qPCR, IP relative to H3) [7]: 34.845
- 2^-dCq (H3K4me3 ChIP-qPCR, IP relative to H3) [8]: 50.1539
- H3K4me3 ChIP-qPCR 2^-dCq (IP-Input) (chr2:40281930-40282015 Intragenic (SLC8A1-AS1), Figure 7 C, Empty Vector, Drug Conc. 5): 0.5453
- H3K4me3 ChIP-qPCR 2^-dCq (IP-Input) (chr2:40281930-40282015 Intragenic (SLC8A1-AS1), Figure 7 C, Empty Vector, Drug Conc. 10): 0.744
- H3K4me3 ChIP-qPCR 2^-dCq (IP-Input) (chr2:40281930-40282015 Intragenic (SLC8A1-AS1), Figure 7 C, PRDM9WT, Drug Conc. 5): 5.233
- H3K4me3 ChIP-qPCR 2^-dCq (IP-Input) (chr2:40281930-40282015 Intragenic (SLC8A1-AS1), Figure 7 C, PRDM9WT, Drug Conc. 10): 7.127
- H3K4me3 ChIP-qPCR 2^-dCq (IP-Input) (chr2:128811847-128811944 (Intergenic), Figure 7 A, Empty Vector, Drug Conc. 5): 1.312
- H3K4me3 ChIP-qPCR 2^-dCq (IP-Input) (chr2:128811847-128811944 (Intergenic), Figure 7 A, Empty Vector, Drug Conc. 10): 1.714
- H3K4me3 ChIP-qPCR 2^-dCq (IP-Input) (chr2:128811847-128811944 (Intergenic), Figure 7 A, PRDM9WT, Drug Conc. 5): 3.31
- H3K4me3 ChIP-qPCR 2^-dCq (IP-Input) (chr2:128811847-128811944 (Intergenic), Figure 7 A, PRDM9WT, Drug Conc. 10): 4.0213
- H3K4me3 ChIP-qPCR 2^-dCq (IP-Input) (chr8:49932778-49932856 (Intergenic), Figure 7 B, Empty Vector, Drug Conc. 5): 0.869
- H3K4me3 ChIP-qPCR 2^-dCq (IP-Input) (chr8:49932778-49932856 (Intergenic), Figure 7 B, Empty Vector, Drug Conc. 10): 0.9683
- H3K4me3 ChIP-qPCR 2^-dCq (IP-Input) (chr8:49932778-49932856 (Intergenic), Figure 7 B, PRDM9WT, Drug Conc. 5): 6.096
- H3K4me3 ChIP-qPCR 2^-dCq (IP-Input) (chr8:49932778-49932856 (Intergenic), Figure 7 B, PRDM9WT, Drug Conc. 10): 6.298
- <Cq> (Plasmid PRDM9WT, Drug Conc. 5): 21.5667
- <Cq> (Plasmid PRDM9WT, Drug Conc. 10): 21.103

Reference: publication PMC6917776, “Discovery of a chemical probe for PRDM9” (Nature Communications, 2019)
